Data on 1 compound can be found in patent publication US20040191327A1, “Method of treating and/or preventing asthma using natural compound luteolin” (Council of Scientific and Industrial Research, priority 2003, published 2004).

“And” between values parts separate entries of the source, which are not always exact repeats. Identical values can stand only once. Marks after values point to notes of the source that are not given here.

In assay [1] the test system is OVA-sensitized mice. Kind of assay: Mouse model of asthma, effective oral dose. In kind it is in vivo. As to the method: In this context, Luteolin was tested on mouse model of asthma. Mice were sensitized with intraperitoneal and aerosol inhalation of OVA to develop the characteristic features of asthma such as allergen induced early airway response (EAR) and late airway response (LAR). These asthmatic features were characterized by measuring airway calibre in the term of specific airway conductance (SGaw) by a non-invasive technique, dual-chamber whole body plethysmography. After developing the characteristic features (EAR and LAR) in mouse, the compound, Luteolin was given orally during whole sensitization period to test the preventive effect on the development of asthmatic features. To examine the therapeutic effect of Luteolin on the asthmatic features, it was fed for one week to mice after sensitization and confirming their asthmatic features.
(§1) To study the preventive effect, Luteolin (dissolved in 50% hydro-alcohol) (Sigma Chemicals Co. St Louis, Mo., USA) (0.1, 1.0, and 10.0 mg/kg body weight, 20 □| volume) or vehicle (i.e., 50% hydro-alcohol) was administered orally to each group of mice daily, starting from the first day of sensitization (FIG. 2A). To study the curative effect, mice were first sensitized as described before (Example 1) followed by oral Luteolin (1.0 mg/kg body weight) treatment daily from day 26 to 32 (FIG. 2B).

In assay [2] the test system is OVA-sensitized mice. Kind of assay: OVA-induced airway constriction (fall of specific airway conductance, SGaw) in mouse model of asthma. In kind it is in vivo. As to the method: Protocol A: The mice were given three i.p. Injections of 10 μg ovalbumin adsorbed on 2 mg alum on 0, 7 and 14 days and then subjected to OVA aerosol inhalation for five consecutive days from 19th to 23rd day of the experiment. On 24th day SGaw measurements were performed after OVA challenge in the plethysmograph and airway reactivity to methacholine was measured after 24 hours. In case of curative study (Protocol B), sensitized mice were fed with 1 mg/kg body weight of Luteolin for one week (days 26-32) and the effects on SGaw and airway reactivity were evaluated. Mice were immunized/sensitized with or without (sham-sensitized) 0.2 ml of 10 μg ovalbumin (Sigma Chemicals Co. St Louis, Mo., USA) and 2 mg aluminum hydroxide intraperitoneally on days 0,7 and 14 using a modified protocol previously described by Sakai et al (FIG. 2). Five days after the final i.p injection, the mice were subjected to aerosolized OVA (5%) or phosphate buffered saline (PBS) (for sham-sensitized group) inhalation for 20 minutes daily beginning from day 19 to day 23 (FIG. 2). Mice were placed in a plexiglas chamber (20×20×20 cm dimensions) and exposed to an aerosol generated from a nebulizer (de Vilbiss, USA) with airflow of 41/min. To study the preventive effect, Luteolin (dissolved in 50% hydro-alcohol) (Sigma Chemicals Co. St Louis, Mo., USA) (0.1, 1.0, and 10.0 mg/kg body weight, 20 □| volume) or vehicle (i.e., 50% hydro-alcohol) was administered orally to each group of mice daily, starting from the first day of sensitization (FIG. 2A). […] Airway calibre was measured in the term of specific airway conductance (SGaw) using a dual-chamber whole body plethysmograph similar to the method for guinea pigs (Agrawal, 1981) with some modifications. […] The value of SGaw was calculated as described by Agrawal (1981). Airway constriction of mice was determined in terms of fall of SGaw due to OVA aerosol challenge. SGaw was measured as described in Example 3. […]

Another assay relates to IL-4. Nature of the assay: IL-4 level in BALF by ELISA. In kind it is in vivo, mouse. Particulars: mean±SEM, n=6. As to the method:
(§2) After testing the compound for the preventive as well as for therapeutic effects in intact conscious mice, mice were sacrificed for collecting the blood and bronchoalveolar lavage (BAL) fluid to measure the levels of IgE, cytokines IL-4, IL-5 and IFN-γ. Ovalbumin specific IgE levels in the sera and the levels of IL-4, IL-5 and IFN-γ in the BAL fluid were measured by enzyme linked ImmunoSorbent assay (ELISA) kits.
(§3) Experiments were performed with six groups of mice (n=6) as described in FIG. 3 legend and the levels of IFN-γ, IL-4 and IL-5 were measured in the BALF. The values are a mean±SEM of six mice in each group. Mann Whitney U test was used to determine the significant differences between the sensitized- and Luteolin treated groups. * p <0.05, ** p<0.01. ‘a’ denotes treatment during sensitization; ‘b’ denotes treatment after sensitization.
(§4) Mice were immunized/sensitized with or without (sham-sensitized) 0.2 ml of 10 μg ovalbumin (Sigma Chemicals Co. St Louis, Mo., USA) and 2 mg aluminum hydroxide intraperitoneally on days 0,7 and 14 using a modified protocol previously described by Sakai et al (FIG. 2). Five days after the final i.p injection, the mice were subjected to aerosolized OVA (5%) or phosphate buffered saline (PBS) (for sham-sensitized group) inhalation for 20 minutes daily beginning from day 19 to day 23 (FIG. 2). Mice were placed in a plexiglas chamber (20×20×20 cm dimensions) and exposed to an aerosol generated from a nebulizer (de Vilbiss, USA) with airflow of 41/min.
as §1
(§5) To investigate the levels of IL-4 and IFN-[…] in the BALF, we measured the cytokine levels by ELISA as per manufacturer's protocol, and compared between the different groups. […] In the Luteolin-treated group, there was an increase in the ratio of IFN-γ/IL-4 (25.8±2.7, 15.5±1.3, 13.2±2.5 following doses of 0.1, 1.0 and 10.0 mg/kg Luteolin, respectively as compared to 0.48±0.1 in sensitized, vehicle treated mice) (p<0.01) (Table 1). […] This increase in the IFN-γ/IL-4 ratio was due to the increase in the IFN-γ levels. We also measured the concentration of IL-5 in the BALF by ELISA in the different groups (Table 1). […]
In general terms: ELISA stands for enzyme-linked immunosorbent assay.

The test system of the next assay is IL-5. Kind of assay: IL-5 level in BALF by ELISA. In kind it is in vivo, mouse. Particulars: mean±SEM. On the procedure:
as §2, §3, §4, §1, §5

In a further assay the test system is IFN-γ. Nature of the assay: IFN-γ level in BALF by ELISA. It is filed as in vivo, mouse. Particulars: mean±SEM, n=6. As to the method: as §2, §3, §4, §1, §5
A further assay concerns OVA-specific IgE. Nature of the assay: OVA-specific IgE levels in serum by ELISA. It is filed as in vivo, mouse. On the procedure: as §2, §4, §1
OVA-specific IgE levels in the serum were measured by enzyme linked ImmunoSorbent assay (ELISA), To investigate the effect of Luteolin on serum IgE levels, we compared the levels of the OVA-specific IgE in serum of mice treated with vehicle or with Luteolin (0.1, 1.0 and 10.0 mg/kg) during sensitization and in sham-sensitized mice.

Assay [3] concerns OVA-sensitized mice. Kind of assay: Airway reactivity to methacholine (MCh PD35) in mouse model of asthma. It is filed as in vivo. As to the method: Protocol A: The mice were given three i.p. Injections of 10 μg ovalbumin adsorbed on 2 mg alum on 0, 7 and 14 days and then subjected to OVA aerosol inhalation for five consecutive days from 19th to 23rd day of the experiment. On 24th day SGaw measurements were performed after OVA challenge in the plethysmograph and airway reactivity to methacholine was measured after 24 hours. In case of curative study (Protocol B), sensitized mice were fed with 1 mg/kg body weight of Luteolin for one week (days 26-32) and the effects on SGaw and airway reactivity were evaluated.
as §4, §1
Airway reactivity to methacholine was determined by measuring the concentration of inhaled methacholine that produced 35% fall in SGaw (MCh PD35) in intact mouse sitting in the body plethysmograph. Aerosol of different concentrations of methacholine (3.1, 6.25, 12.5, 50, 100 mg/ml) were given for 60 seconds. MCh PD35 values were determined in sham-sensitized, sensitized and Luteolin treated mice during and after sensitization. […] Treatment with Luteolin (0.1, 1.0 and 10.0 mg/kg during sensitization) markedly attenuated the development of airway hyperreactivity to methacholine. MCh PD35 values increased following Luteolin treatment to 72.1±1.9, 42.4±4.2 and 10.9±4.8 mg/ml, respectively (p<0.01).

Where [4] appears, read: 1.0 mg/kg oral for one week after sensitization.
Where [5] appears, read: 10.0 mg/kg during sensitization.
The mark [6] stands for this setting: 1.0 mg/kg oral during sensitization.
Setting [7] is: 10.0 mg/kg oral during sensitization.

As to `O=c1cc(-c2ccc(O)c(O)c2)oc2cc(O)cc(O)c12` [Luteolin], in the assay on OVA-sensitized mice [1], the effective dose came to 1 mg/kg body weight. For the same compound, the “decrease in SGaw after OVA challenge” value in the assay on OVA-sensitized mice [2] (0.1 mg/kg oral daily during sensitization, sensitized vehicle mice 43% fall) is given as 7%. For the same compound, the “OVA-induced decrease in SGaw, curative effect” value in the assay on OVA-sensitized mice [2] (setting [4]) was “reverse OVA-induced decrease in SGaw”. Moreover, the “reduction of OVA-induced decrease in SGaw at higher doses” value in the assay on OVA-sensitized mice [2] (1.0 and 10.0 mg/kg oral daily during sensitization, versus 0.1 mg/kg) is recorded as “did not show any greater reduction”. Also, the IL-4 with IL-4 (0.1 mg/kg during sensitization) came to 136 ± 4.0 pg/mL; in the assay with IL-4 (1.0 mg/kg after sensitization), 130 ± 5.0 pg/mL; in the assay with IL-4 (1.0 mg/kg during sensitization), 169 ± 13.9 pg/mL; with IL-4 (setting [5]) it was 128 ± 8.8 pg/mL. Besides, the IL-5 is 73.3±13.4 pg/ml and 73 ± 13.4* pg/ml with IL-5 (0.1 mg/kg during sensitization, n=6, 0.1 mg/kg); 43.7±2.3 pg/ml and 44 ± 2.3* pg/ml in the assay with IL-5 (1.0 mg/kg after sensitization (one week), n=6, 1 mg/kg); 43.3±3.5 pg/ml and 43 ± 3.5* pg/ml in the assay on IL-5 (1.0 mg/kg during sensitization, n=6, 1 mg/kg); 235 ± 66.4 pg/mL in the assay with IL-5 (10.0 mg/kg during sensitization, n=6). Besides, the IFN-γ with IFN-γ (0.1 mg/kg during sensitization) is reported as 3533 ± 427** pg/ml; with IFN-γ (1.0 mg/kg after sensitization), 2067 ± 233.3** pg/ml; in the assay on IFN-γ (1.0 mg/kg during sensitization), 2652 ± 114.3** pg/ml; in the assay on IFN-γ (setting [5]), 1247 ± 412.5** pg/ml. Also, the “OVA-specific serum IgE level” value in the assay with OVA-specific IgE (0.1 mg/kg oral during sensitization, sensitized vehicle 3.3±0.4) worked out at 0.74±0.4; in the assay on OVA-specific IgE (setting [6]), 0.93±0.03; in the assay on OVA-specific IgE (1.0 mg/kg oral for a week after sensitization) it was 2.07±1; in the assay with OVA-specific IgE (setting [7]), 0.97±0.07. Further, the “MCh PD35” value in the assay with OVA-sensitized mice [3] (0.1 mg/kg oral during sensitization, sensitized 1.3±0.5, normal 97±1.0) was 72.1 ± 1.9 mg/mL; in the assay with OVA-sensitized mice [3] (setting [6]), 42.4 ± 4.2 mg/mL; in the assay on OVA-sensitized mice [3] (setting [4]) it was “increased significantly”; with OVA-sensitized mice [3] (setting [7]), 10.9 ± 4.8 mg/mL.
